In patent US5386011A, “Hexapeptide anaphylatoxin-receptor ligands” (priority 1990, dated 1995):
Counter-ions that a name gives are not always drawn. Where a SMILES comes first, the peptide text is derived from it. [ ]: non-standard residue; d: D form. The star is where a group is joined. Phe(4-I) = N[C@@H](Cc1ccc(I)cc1)C(=O)O; d1Nal = N[C@H](Cc1cccc2ccccc12)C(=O)O; NMeF = CN[C@@H](Cc1ccccc1)C(=O)O; Cha = N[C@@H](CC1CCCCC1)C(=O)O; dCha = N[C@H](CC1CCCCC1)C(=O)O; dPhg = N[C@@H](C(=O)O)c1ccccc1; NMe(benzyl) = CN(Cc1ccccc1)*; dNle = CCCC[C@@H](N)C(=O)O; Nle = CCCC[C@H](N)C(=O)O; Tfa = O=C(C(F)(F)F)*

Biological target: T1, C5a Receptor (Homo sapiens, UniProt P21730)
T1 construct: 2.5-25 ug/mL of purified PMNL membrane fragments; endogenous in cells; host or cells: PMNL (polymorphonuclear leukocytes), purified membrane fragments
T1 sequence (P21730 1-350): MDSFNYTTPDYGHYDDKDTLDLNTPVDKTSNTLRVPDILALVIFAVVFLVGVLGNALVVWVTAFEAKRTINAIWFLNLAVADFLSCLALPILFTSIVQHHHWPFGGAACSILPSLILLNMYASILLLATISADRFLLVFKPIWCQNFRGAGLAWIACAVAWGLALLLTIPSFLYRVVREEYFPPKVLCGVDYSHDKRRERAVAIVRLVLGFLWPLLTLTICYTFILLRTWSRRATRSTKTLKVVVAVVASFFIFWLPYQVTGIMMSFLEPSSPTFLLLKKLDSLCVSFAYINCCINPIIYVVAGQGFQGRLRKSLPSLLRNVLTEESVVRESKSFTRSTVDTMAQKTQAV
Experiment: Anaphylatoxin receptor binding Ki determination: inhibition of 125I-C5a binding to purified PMNL membrane fragments
Settings: 0.03-1 nM 125I-C5a, 2.5-25 ug/mL purified PMNL membrane fragments, filtration; read-out: Ki (In vitro C5a Receptor Binding Potency)
Protocol: Specific inhibition of C5a binding activity of representative compounds of the present invention was measured using 0.03-1 nM ^125 I-C5a with 2.5-25 ug/mL of purified PMNL membrane fragments (Borregaard, N.; Heiple, J. M.; Simons, E. R.; and Clark, R. A. J. Cell. Biol. 1983, 97, 52-61.). Free and membrane-bound ligand were separated by filtration.

SMILES: CC(C)(C)CC(N)C(=O)N[C@@H](CCCCN)C(=O)N1CCC[C@H]1C(=O)N[C@H](CC1CCCCC1)C(=O)N[C@@H](CC1CCCCC1)C(=O)N[C@H](CCCNC(=N)N)C(=O)O (mixture of isomers) [Example 6, H-{(R/S)-t-Butylalanyl}-Lysyl-Prolyl-{(2R)-2-Amino-3-cyclohexylproanoyl}-{(2S)-2-Amino-3-cyclohexylpropanoyl}-DArginyl-OH]
- Ki: 80 nM

SMILES: CN[C@@H](Cc1ccccc1)C(=O)N[C@@H](CCCCN)C(=O)N[C@@H](CCC(=O)O)C(=O)N[C@H](CC1CCCCC1)C(=O)N[C@@H](Cc1ccccc1)C(=O)N[C@H](CCCNC(=N)N)C(=O)O [Example 40, (N-Methyl)Phenylalanyl-Lysyl-Glutamyl-{(2R)-2-Amino-3-cyclohexylpropanoyl}-Phenylalanyl-DArginyl-OH] (H-[NMeF]KE[dCha]F[dR]-OH)
- Ki: 100 nM

SMILES: N=C(N)NCCC[C@@H](NC(=O)[C@H](CC1CCCCC1)NC(=O)[C@@H](CC1CCCCC1)NC(=O)[C@H](CCCCN)NC(=O)[C@H](CCCCN)NC(=O)[C@@H](N)Cc1ccccc1)C(=O)O [Example 58, H-Phenylalanyl-Lysyl-Lysyl-{(2R)-2-Amino-3-cyclohexylpropanoyl}-{(2S)-2-Amino-3-cyclohexylpropanoyl}-DArginyl-OH] (H-FKK[dCha][Cha][dR]-OH)
- Ki: 11 nM

SMILES: CN[C@@H](Cc1ccccc1)C(=O)N[C@@H](CCCCN)C(=O)N1CCC[C@H]1C(=O)N[C@H](CC1CCCCC1)C(=O)N[C@@H](CC1CCCCC1)C(=O)N[C@H](CCCNC(=N)N)C(=O)N(C)Cc1ccccc1 [Example 97, (N-Methyl)Phenylalanyl-Lysyl-Prolyl-{(2R) -2-Amino-3-cyclohexylpropanoyl}-{(2S)-2-Amino-3-cyclohexylpropanoyl}-DArginyl-N-(Methyl)(Benzyl)] (H-[NMeF]KP[dCha][Cha][dR]-{NMe(benzyl)})
- Ki: 520 nM

SMILES: CC(C)C[C@H](NC(=O)[C@H](CC1CCCCC1)NC(=O)[C@H](CC1CCCCC1)NC(=O)[C@H](CCCCN)NC(=O)[C@@H](N)Cc1ccc(I)cc1)C(=O)N[C@H](C)C(=O)N[C@@H](CCCNC(=N)N)C(=O)O [Example 107, H-(p-Iodo)Phenylalanyl-Lysyl-{(2S)-2-Amino-3-cyclohexylpropanoyl}-{(2S)-2-Amino-3-cyclohexylpropanoyl}-Leucyl-DAlanyl-Arginyl-OH] (H-[Phe(4-I)]K[Cha][Cha]L[dA]R-OH)
- Ki: 3600 nM

SMILES: CC(=O)N[C@@H](Cc1ccccc1)C(=O)N[C@@H](CCCCN)C(=O)N[C@@H](C)C(=O)N[C@H](CC1CCCCC1)C(=O)N[C@@H](CC1CCCCC1)C(=O)N[C@H](CCCNC(=N)N)C(=O)O [Example 120, N-Acetyl-Phenylalanyl-Lysyl-Alanyl-{(2R)-2-Amino-3-cyclohexylpropanoyl}-{(2S)-2-Amino-3-cyclohexylpropanoyl}-DArginyl-OH] (Ac-FKA[dCha][Cha][dR]-OH)
- Ki: 110 nM

SMILES: CN[C@@H](Cc1ccccc1)C(=O)N[C@@H](CCCCN)C(=O)N1CCC[C@H]1C(=O)N[C@H](CC1CCCCC1)C(=O)N[C@@H](Cc1ccccc1)C(=O)N[C@H](CCCNC(=N)N)C(=O)O [Example 128, (N-Methyl) Phenylalanyl-Lysyl-Prolyl-{(2R)-2-Amino-3-cyclohexylpropanoyl}-Phenylalanyl-DArginyl-OH] (H-[NMeF]KP[dCha]F[dR]-OH)
- Ki: 39 nM

SMILES: CN[C@@H](Cc1ccccc1)C(=O)N[C@@H](CCCCN)C(=O)N[C@@H](C)C(=O)N[C@H](CC1CCCCC1)C(=O)N[C@@H](CC1CCCCC1)C(=O)N[C@H](CCCNC(=N)N)C(=O)O [Example 152, (N-Methyl)Phenylalanyl-Lysyl-Alanyl-{(2R)-2-Amino-3-cyclohexylpropanoyl}-{(2S)-2-Amino-3-cyclohexylpropanoyl}-DArginyl-OH] (H-[NMeF]KA[dCha][Cha][dR]-OH)
- Ki: 83 nM

SMILES: CN[C@@H](Cc1ccccc1)C(=O)N[C@@H](CCCCN)C(=O)N1CCC[C@H]1C(=O)N[C@H](CC1CCCCC1)C(=O)N[C@@H](CC1CCCCC1)C(=O)N[C@H](CCCNC(=N)N)C(=O)O [Example 166, (N-Methyl)Phenylalanyl-Lysyl-Prolyl-{(2R)-2-Amino-3-cyclohexylpropanoyl}-{(2S)-2-Amino-3-cyclohexylpropanoyl}-DArginyl-OH] (H-[NMeF]KP[dCha][Cha][dR]-OH)
- Ki: 35 nM

SMILES: CCCC[C@H](NC(=O)[C@H](Cc1ccccc1)NC)C(=O)N1CCC[C@H]1C(=O)N[C@H](CC1CCCCC1)C(=O)N[C@@H](CC1CCCCC1)C(=O)N[C@H](CCCNC(=N)N)C(=O)O [Example 187, (N-Methyl)Phenylalanyl-Norleucyl-Prolyl-{(2R)-2-Amino-3-cyclohexylpropanoyl}-{(2S)-2-Amino-3-cyclohexylpropanoyl}-DArginyl-OH] (H-[NMeF][Nle]P[dCha][Cha][dR]-OH)
- Ki: 300 nM

SMILES: CC(C)C[C@@H](NC(=O)[C@H](CC1CCCCC1)NC(=O)[C@H](CC1CCCCC1)NC(=O)[C@H](C)NC(=O)[C@H](CCCCN)NC(=O)[C@@H](N)Cc1ccccc1)C(=O)N[C@@H](CCCNC(=N)N)C(=O)O [Example 195, H-Phenylalanyl-Lysyl-Alanyl-{(2S)-2-Amino-3-cyclohexylpropanoyl}-{(2S)-2-Amino-3-cyclohexylpropanoyl}-DLeucyl-Arginyl-OH] (H-FKA[Cha][Cha][dL]R-OH)
- Ki: 1500 nM

SMILES: CN[C@@H](Cc1ccccc1)C(=O)N[C@@H](CCCCN)C(=O)N1CCC[C@H]1C(=O)N[C@H](CC1CCCCC1)C(=O)N[C@@H](Cc1ccccc1)C(=O)N[C@H](Cc1ccccc1)C(=O)O [Example 212, (N-Methyl)Phenylalanyl-Lysyl-Prolyl-{(2R)-2-Amino-3-cyclohexylpropanoyl}-Phenylalanyl-DPhenylalanyl-OH] (H-[NMeF]KP[dCha]F[dF]-OH)
- Ki: 110 nM

SMILES: CC(C)C[C@H](NC(=O)[C@H](CC1CCCCC1)NC(=O)[C@H](CC1CCCCC1)NC(=O)[C@H](C)NC(=O)[C@H](CCCCN)NC(=O)[C@@H](N)Cc1ccccc1)C(=O)N[C@H](CCCNC(=N)N)C(=O)O [Example 214, H-Phenylalanyl-Lysyl-Alanyl-{(2S)-2-Amino-3-cyclohexylpropanoyl}-{(2S)-2-Amino-3-cyclohexylpropanoyl}-Leucyl-DArg] (H-FKA[Cha][Cha]L[dR]-OH)
- Ki: 90 nM

SMILES: CN[C@@H](Cc1ccccc1)C(=O)N[C@@H](CCCCN)C(=O)N1CCC[C@H]1C(=O)N[C@H](Cc1cccc2ccccc12)C(=O)N[C@@H](Cc1ccccc1)C(=O)N[C@H](CCCNC(=N)N)C(=O)O [Example 224, (N-Methyl)Phenylalanyl-Lysyl-Prolyl-D(1-Naphthylalanyl)-Phenylalanyl-DArginyl-OH] (H-[NMeF]KP[d1Nal]F[dR]-OH)
- Ki: 12 nM

SMILES: CN[C@@H](Cc1ccccc1)C(=O)N[C@@H](CCCCNC(=O)C(F)(F)F)C(=O)N1CCC[C@H]1C(=O)N[C@H](CC1CCCCC1)C(=O)N[C@@H](CC1CCCCC1)C(=O)N[C@H](CCCNC(=N)N)C(=O)O [Example 305, (N-Methyl)Phenylalanyl-Lysyl(N-epsilon-trifluoroacetyl)-Prolyl-{(2R)-2-Amino-3-cyclohexylpropanoyl}-{(2S)-2-Amino-3-cyclohexylpropanoyl}-DArginyl-OH] (H-[NMeF]K(Tfa)P[dCha][Cha][dR]-OH)
- Ki: 220 nM

SMILES: CC(C)[C@H](NC(=O)[C@H](CCCCN)NC(=O)[C@@H](N)Cc1ccccc1)C(=O)N[C@H](CC1CCCCC1)C(=O)N[C@@H](CC1CCCCC1)C(=O)N[C@H](CCCNC(=N)N)C(=O)O [Example 360, H-Phenylalanyl-Lysyl-Valyl-{(2R)-2-Amino-3-cyclohexylpropanoyl}-{(2S)-2-Amino-3-cyclohexylpropanoyl}-DArginyl-OH] (H-FKV[dCha][Cha][dR]-OH)
- Ki: 53 nM

SMILES: CN[C@@H](Cc1ccccc1)C(=O)N[C@@H](CCCCN)C(=O)N1CCC[C@H]1C(=O)N[C@H](CC1CCCCC1)C(=O)N[C@@H](Cc1ccccc1)C(=O)N[C@@H](C(=O)O)c1ccccc1 [Example 367, (N-Methyl)Phenylalanyl-Lysyl-Prolyl-{(2R)-2-Amino-3-cyclehexylpropanoyl}-Phenylalanyl-{(R)-Phenylglycinyl}-OH] (H-[NMeF]KP[dCha]F[dPhg]-OH)
- Ki: 1900 nM

SMILES: C[C@H](NC(=O)[C@H](CCCCN)NC(=O)[C@@H](N)Cc1ccccc1)C(=O)N[C@H](CC1CCCCC1)C(=O)N[C@@H](CC1CCCCC1)C(=O)N[C@H](CCCNC(=N)N)C(=O)O [Example 370, H-Phenylalanyl-Lysyl-Alanyl-{(2R)-2-Amino-3-cyclohexylpropanoyl}-{(2S)-2-Amino-3-cyclohexylpropanoyl}-DArginyl-OH] (H-FKA[dCha][Cha][dR]-OH)
- Ki: 85 nM

SMILES: CCCC[C@@H](NC(=O)[C@H](CC(C)C)NC(=O)[C@H](CC1CCCCC1)NC(=O)[C@H](CC1CCCCC1)NC(=O)[C@H](C)NC(=O)[C@H](CCCCN)NC(=O)[C@@H](N)Cc1ccccc1)C(=O)O [Example 390, H-Phenylalanyl-Lysyl-Alanyl-{(2S)-2-Amino-3-cyclohexylpropanoyl}-{(2S)-2-Amino-3-cyclohexylpropanoyl}-Leucyl-DNorleucyl-OH] (H-FKA[Cha][Cha]L[dNle]-OH)
- Ki: 4000 nM
